Laboratory results taken from US20230414583A1, “LYSERGIC ACID DERIVATIVES WITH MODIFIED LSD-LIKE ACTION” (Mind Medicine, Inc., priority 2022, published 2023).

How the values were obtained:
[1] = tested on: LSD-trained rats; conditions: even at 20× of the full active dose of LSD; cited from earlier work
[2] = tested on: 5-HT2A; conditions: cited from earlier work
[3] = Chemical stability under basic and acidic conditions (HPLC MS); type: physicochemical
Method: General preparation and equipment information: NMR was performed on a Bruker NMR (^1H: 300 MHz and ^19F: 282 MHz) at ambient temperature. Reaction controls were performed by silica gel TLC (F254; UV detection) and HPLC UV & MS (Agilent 1100, UV at 210 nm and 313 nm, Waters SQD, ESI+ mode) under basic as well as acidic conditions (solvents: A: either 0.02% NH4OH in water or 0.05% TFA in water, B: acetonitrile, gradients from 5% to 95% B, reversed phase C18 HPLC column). All reactions, workups, drying steps, and storing were performed under exclusion of daylight and of electric light such as neon lighting or light bulbs containing wavelengths of the blue and/or UV spectrum. Working was performed in either light-excluding lab ware or under orange to red light (UV free LED). This helps to prevent decompositions of the compounds. Further on, reactions und some purifications can be performed under protecting gas such as Nitrogen or Argon to further protect the compounds from decompositions. Purifications were performed by using silica gel column chromatography and organic solvents such as mixtures of an alcohol (MeOH or EtOH) and dichloromethane, and in some cases, 0.1% to 1% of NH4OH 25% or 0.1% to 1% NEt3 was added. In a similar way, preparative TLC (silica gel) using the aforementioned solvents was applied as well. Working safety: a suitable personal protecting ware common to lab works and fume hoods with a movable glass window were used. Possible contaminations on e.g., gloves or surfaces can quickly be detected by having a long-wave UV lamp (e.g., 366 nm) at hands, preventing further distribution of active materials. Typically, compounds bearing an intact lysergic acid amide substructure, show a strong blueish fluorescence even in trace amounts. Quick deactivation of the potential central effects of these compounds can be performed by using, e.g., a mixture of bleach and diluted alcohol.
9,10-Didehydro-N-ethenyl-N-ethyl-6-methylergoline-8R-carboxamide (TRALA-12), 21. […]

[4] = Microsomal assays: stability in pooled human liver microsomes, LC-MS/MS; type: in vitro ADME; conditions: 10 nM; for microsomal metabolism compared with LSD: incubations over 4 hours
Description: Given its fast metabolism, it is likely not active orally but is a candidate for intravenous administration in particular as an infusion and expected to then produce short-lasting or also maintained effects that can rapidly be terminated upon stopping the infusion. […] However, it is important to note that in addition to the metabolic profile, other factors such as 5-HT2A receptor activity are important to consider when choosing promising drug candidates for therapeutic applications. In addition, in vivo experiments are necessary further assessing the clinical pharmacokinetics of these substances.
Microsomal assays: The objective of this experiment was the investigation of the microsomal stability of 10 novel lysergamides (FIGS. 13A-13J) in order to make predictions about whether any of the derivatives may be clinically faster metabolized than lysergic acid diethylamide (LSD). The test substances were incubated with human liver microsomes for 4 hours and the metabolic degradation was then measured by liquid chromatography-tandem mass spectrometry (LC-MS/MS). In brief, LSD and the derivatives (10 nM) were incubated in the presence of pooled human liver microsomes for 4 hours. The microsomal reaction mixture contained 464.5 μL phosphate-buffered saline, 25 μL nicotinamide adenine dinucleotide phosphate (NADPH) solution A (1:20 dilution, #451220, lot: 0344003; Corning Life Sciences B.V) and 5 μL Solution B (1:100 dilution, #451200, lot: 0342002; Corning Life Sciences B.V), 5 μL liver microsomes (150 donors, 20 mg/mL, #452117, lot: 38296; Corning Life Sciences B.V., Amsterdam, The Netherlands), and 0.5 μL test drugs (10 μM). Samples (50 μL) were taken 2 minutes prior to microsomal incubation (t0) and 0.5, 1, 2, 3, and 4 hours after initiation of the microsomal reaction. A total of five assays were performed per substance. The amount of the test substances (peak area) exposed to human liver microsomes for 4 hours was compared relative to a concentration of 10 nM (t0, 100% peak area). Linear regression slopes were plotted to compare the degradation of the derivatives and LSD. None of the TRALA derivatives were metabolized to LSD (data not shown).

[5] = humans; psilocin: unconjugated, average; cited from earlier work
[6] = 5R,8S epimer; cited from earlier work

Which “ability to substitute in LSD-trained rats” value [1] does the source give for `CCN(CC)C(=O)[C@@H]1C=C2c3cccc4[nH]cc(c34)C[C@H]2NC1` [6-Nor-LSD, 9,10-Didehydro-N,N-diethylergoline-8R-carboxamide] here?
The value was “loss of its 5-HT2A binding affinity (factor 30) and the ability to substitute in LSD-trained rats”.

And the “binding to 5-HT2A in more recent binding assays” value ([2]; Luethi et al., 2019)?
The value was “high-potency binding to 5-HT2A”.

What about the “loss of 5-HT2A binding affinity on N6-demethylation of LSD” value ([2]; relative to LSD (Hoffmann, 1987)) of the same molecule?
Its value is 30 factor.

Which “stability against basic or acidic HPLC MS conditions” value ([3]; 0.02% NH4OH in water or 0.05% TFA in water / acetonitrile) does the source give for `C=CN(CC)C(=O)[C@@H]1C=C2c3cccc4[nH]cc(c34)C[C@H]2N(C)C1` [Compound 2l, 9,10-Didehydro-N-ethenyl-N-ethyl-6-methylergoline-8R-carboxamide] here?
Its value is “stability against these conditions”.

What about the “time after which the majority of substance was metabolized” value [4] of the same molecule?
Its value is 30 min.

What about the “microsomal metabolism compared with LSD” value [4] of the same molecule?
The value was “significantly faster metabolized than LSD”.

For `CCN(C=C(F)F)C(=O)[C@@H]1C=C2c3cccc4[nH]cc(c34)C[C@H]2N(C)C1` [Compound 2m, 9,10-Didehydro-N-(2,2-difluoroethenyl)-N-ethyl-6-methylergoline-8R-carboxamide], which “chemical stability, basic conditions” value ([3]; hydrolyzed sample stored at ambient temperature overnight) is on record?
The value was “remained intact”.

What about the “chemical stability, acidic conditions” value ([3]; hydrolyzed sample with excess tartaric acid, stored for 24h) of the same molecule?
Its value is “the same product distribution as after initial hydrolysis of the reaction”.

Which “microsomal metabolism compared with LSD” value [4] does the source give for `C=C(F)CN1C[C@H](C(=O)N(CC)CC)C=C2c3cccc4[nH]cc(c34)C[C@H]21` [Compound 12c, 9,10-Didehydro-N,N-diethyl-6-(2-fluoro-1-propen-3-yl)ergoline-8R-carboxamide] here?
The value was “significantly faster metabolized than LSD”.

With `C#CCN(CC)C(=O)[C@@H]1C=C2c3cccc4[nH]cc(c34)C[C@H]2N(CCF)C1` [Compound 16a, 9,10-Didehydro-N-ethyl-N-propyn-3-yl-6-(2-fluoroethyl)ergoline-8R-carboxamide] as the molecule, how does the “microsomal metabolism compared with LSD” value [4] read?
Its value is “significantly faster metabolized than LSD”.

With `C#CCN(CC)C(=O)[C@@H]1C=C2c3cccc4[nH]cc(c34)C[C@H]2N(CC(=C)F)C1` [Compound 16b, 9,10-Didehydro-N-ethyl-N-propyn-3-yl-6-(2-fluoro-1-propen-3-yl)ergoline-8R-carboxamide] as the molecule, how does the “microsomal metabolism compared with LSD” value [4] read?
The value was “significantly faster metabolized than LSD”.

With `CCN(CC)C(=O)[C@@H]1C=C2c3cccc4[nH]cc(c34)C[C@H]2N(C)C1` [LSD, 9,10-Didehydro-N,N-diethyl-6-methylergoline-8R-carboxamide] as the molecule, how does the plasma half-life [5] read?
Its plasma half-life is “approximately 4 hours”.

Which psychoactivity in humans [6] does the source give for `CCN(CC)C(=O)[C@H]1C=C2c3cccc4[nH]cc(c34)C[C@H]2N(C)C1` [iso-LSD] here?
The psychoactivity in humans was “inactive up to several milligrams”.
